For data set [1], the system named is DLD-1. Put plainly: Antiproliferative activity against human DLD1 cells after 48 hrs by MTT assay. The following applies: DLD-1, 48 h. The format is functional, cell-based. A general note: Formazan colour is commonly taken as a measure of viable cells.
The test system of data set [2] is MDA-MB-231. Put plainly: Antiproliferative activity against human MDA-MB-231 cells after 48 hrs by MTT assay. It counts as functional, cell-based. The settings on record: MDA-MB-231, 48 h.
Data set [3] concerns HepG2. As to the kind of experiment: Antiproliferative activity against human HepG2 cells after 48 hrs by MTT assay. The format is functional, cell-based. The settings on record: HepG2, 48 h.
In the next data set the test system is 4T1. As to the kind of experiment: Antiproliferative activity against mouse 4T1 cells after 48 hrs by MTT assay. It counts as functional, cell-based. The following applies: 4T1, 48 h.
The test system of data set [4] is HCT-116. Put plainly: Antiproliferative activity against human HCT116 cells after 48 hrs by MTT assay. It counts as functional, cell-based. The following applies: HCT-116, 48 h.
The subject of another data set is HeLa. Put plainly: Antiproliferative activity against human HeLa cells after 48 hrs by MTT assay. It counts as functional, cell-based.
In data set [5] the target is T1, DNA ligase 1 (Homo sapiens, UniProt P18858). As to the kind of experiment: Inhibition of human DNA ligase 1 expressed in Escherichia coli BL21DE3RP cells at 50 uM using 52-mer DNA/25-mer DNA/27-mer DNA as substrate after 30 mins by Cyanin3 dye-based fluorescence assay relative to control.
In a further data set the test system is HT-29. Put plainly: Antiproliferative activity against human HT-29 cells after 48 hrs by MTT assay. It counts as functional, cell-based. The settings on record: HT-29, 48 h.
Data set [6] deals with T1, DNA ligase 1. Put plainly: Inhibition of human DNA ligase 1 using 52-mer DNA/25-mer DNA/27-mer DNA as substrate by fluorescence assay.
Data set [7] addresses T1, DNA ligase 1. Put plainly: Inhibition of human DNA ligase 1 at 50 uM using 52-mer DNA/25-mer DNA/27-mer DNA as substrate by fluorescence assay relative to control.
Data set [8] relates to HepG2. As to the kind of experiment: Antiproliferative activity against human HepG2 cells at 100 uM relative to control. The format is functional.
For data set [9], the system named is HCT-116. As to the kind of experiment: Antiproliferative activity against human HCT116 cells at 100 uM relative to control. It counts as functional.
For the next data set, the system named is A549. Put plainly: Antiproliferative activity against human A549 cells at 100 uM relative to control. The format is functional.
The subject of data set [10] is MDA-MB-231. Put plainly: Antiproliferative activity against human MDA-MB-231 cells at 100 uM relative to control. The format is functional.
Data set [11] relates to DLD-1. As to the kind of experiment: Antiproliferative activity against human DLD1 cells at 100 uM relative to control. The format is functional.
Another data set deals with HEK293. Put plainly: Cytotoxicity against HEK293 cells at 100 uM relative to control. The format is cell-based. The following applies: human, hek293, 100 µM.

T1 sequence (P18858 whole entry): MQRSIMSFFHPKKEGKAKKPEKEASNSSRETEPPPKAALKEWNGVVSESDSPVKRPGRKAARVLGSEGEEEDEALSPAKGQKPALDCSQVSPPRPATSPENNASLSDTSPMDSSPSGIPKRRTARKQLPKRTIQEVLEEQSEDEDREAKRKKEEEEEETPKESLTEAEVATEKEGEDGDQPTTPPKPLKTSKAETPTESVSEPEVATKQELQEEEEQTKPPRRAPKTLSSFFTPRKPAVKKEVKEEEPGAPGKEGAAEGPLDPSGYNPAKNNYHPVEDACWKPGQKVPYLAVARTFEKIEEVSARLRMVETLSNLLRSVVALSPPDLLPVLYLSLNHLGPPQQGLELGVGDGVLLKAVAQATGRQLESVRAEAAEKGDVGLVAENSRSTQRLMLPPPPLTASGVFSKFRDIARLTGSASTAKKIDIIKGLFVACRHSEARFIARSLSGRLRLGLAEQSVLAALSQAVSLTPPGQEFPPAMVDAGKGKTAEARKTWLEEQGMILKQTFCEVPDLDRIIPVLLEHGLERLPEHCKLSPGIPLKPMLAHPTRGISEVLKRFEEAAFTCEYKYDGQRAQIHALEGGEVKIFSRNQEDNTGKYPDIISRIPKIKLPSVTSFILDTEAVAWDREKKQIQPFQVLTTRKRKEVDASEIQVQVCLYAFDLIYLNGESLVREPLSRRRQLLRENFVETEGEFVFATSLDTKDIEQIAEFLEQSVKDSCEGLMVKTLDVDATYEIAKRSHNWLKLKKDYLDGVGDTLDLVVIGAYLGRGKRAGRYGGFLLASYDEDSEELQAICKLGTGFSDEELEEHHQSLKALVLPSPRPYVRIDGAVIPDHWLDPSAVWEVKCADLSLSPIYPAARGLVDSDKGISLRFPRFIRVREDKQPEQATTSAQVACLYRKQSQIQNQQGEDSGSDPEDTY

A word on the IC50: it is the midpoint of a concentration-inhibition curve. A lower IC50 goes with greater potency in that assay. By inhibition is commonly meant the change of the read-out against control, counted positive when it falls. Read a high inhibition as a strong effect. As for `O=C1/C(=C/c2ccc(F)cc2)CN(C(=S)NC(=O)c2ccccc2)C/C1=C\c1ccc(F)cc1`, the IC50 in the data set on DLD-1 [1], with MDA-MB-231 [2], in the data set on HepG2 [3], in the data set with 4T1, in the data set on HCT-116 [4] and in the data set with HeLa was less than 10 µM in each case. Further, the IC50 in the data set on HT-29 is less than 10 µM. On DNA ligase 1 [5], the inhibition was greater than 75%.
On to `Cc1ccccc1/C=C1\CN(C(=S)NC(=O)c2ccccc2)C/C(=C\c2ccccc2C)C1=O`, for which the IC50 in the data set with DLD-1 [1], with MDA-MB-231 [2], with HepG2 [3], with 4T1, with HCT-116 [4] and with HeLa was less than 10 µM in each case. Also, in the data set with HT-29, the IC50 was less than 10 µM. In addition, the inhibition against DNA ligase 1 [5] is greater than 75%.
On DNA ligase 1 [6], `C=C1C(=O)OC(CCCCCCCCCCCCC)C1C(=O)O` (stereo not drawn) [(+/-)-Protolichesterinic acid] gave an IC50 of 18.5 µM.
For the molecule `O=C1/C(=C/c2ccc(F)cc2)CN(C(=S)NCCc2ccccc2)C/C1=C\c1ccc(F)cc1`, the IC50 in the data set on DLD-1 [1], with MDA-MB-231 [2], in the data set with HepG2 [3], in the data set with 4T1, in the data set with HCT-116 [4] and in the data set with HeLa was less than 10 µM throughout. Moreover, the 50% inhibitory concentration (IC50) with HT-29 is less than 10 µM. Besides, the inhibition against DNA ligase 1 [5] is greater than 75%.
At DNA ligase 1 [7], `Cc1cc(NC(=O)CN2CCN(C(=O)OC(C)(C)C)CC2)c2cc(NC(=O)Nc3ccc(C)c(Cl)c3)ccc2n1` came in with an inhibition of 61.1%.
Take `CC1(C)CC[C@]2(C(=O)O)CC[C@]3(C)C(=CC[C@@H]4[C@@]5(C)CC[C@H](O)C(C)(C)[C@@H]5CC[C@]43C)[C@@H]2C1` [OLEANOLIC_ACID]: half-maximal inhibition at DNA ligase 1 [6] (IC50) required 186 µM.
Regarding `COc1cc2c[n+](C)c3c4cc5c(cc4ccc3c2cc1OC)OCO5` [NITIDINE CHLORIDE], on DNA ligase 1 [6], the IC50 is 65.1 µM. Against the preceding molecule, the IC50 is about 2.9-fold lower.
Regarding `O=c1c(O)c(-c2cc(O)c(O)c(O)c2)oc2cc(O)cc(O)c12` [MYRICETIN], the IC50 on DNA ligase 1 [6] is 88 µM.
On DNA ligase 1 [7], `COc1cc([N+](=O)[O-])ccc1NC(=S)NCC12C=CC(O1)C1C(=O)N(c3ccc(C)cc3)C(=O)C12` (stereo not given) gave an inhibition of 98.2%.
Take `COc1cc2c(ccc3c4cc(OC)c(OC)cc4c[n+](C)c23)cc1O` [FAGARONINE]: on DNA ligase 1 [6], 25.9 µM corresponded to half-maximal inhibition (IC50).
As for `COC(=O)N1CCN(CC(=O)Nc2cc(C)nc3ccc(NC(=O)Nc4ccc(Br)cc4)cc23)CC1`, the inhibition against DNA ligase 1 [7] was found to be 10.8%.
At DNA ligase 1 [6], `C/C=C/C=C1\C=Cc2c(C(=O)OC)coc(=O)c21` [FULVOPLUMIERIN] showed an IC50 of 356 µM.
Same read-out and setting: under `C[C@H]1[C@H](C)CC[C@]2(C(=O)O)CC[C@]3(C)C(=CC[C@@H]4[C@@]5(C)CC[C@H](O)C(C)(C)[C@@H]5CC[C@]43C)[C@H]12` [URSOLIC ACID] stands 263 µM; under `CC1(C)CC[C@]2(C(=O)O)CC=C3[C@]4(C)CC[C@H]5C(C)(C)[C@@H](O)CC[C@]5(C)[C@H]4CC[C@@]3(C)[C@@H]2C1` [ALEURITOLIC ACID], 208 µM.
Molecule `CC(=O)c1ccc(NC(=O)Nc2ccc3nc(C)cc(NC(=O)c4ccco4)c3c2)cc1` registered an inhibition against DNA ligase 1 [7] of 42.4%.
For the molecule `CCOC(=O)C1=C(C)NC(=O)NC1c1cc(/C=N/NC(N)=S)c(O)c(C(C)(C)C)c1` (stereo not given), the inhibition at 100 µM with HepG2 [8], in the data set with HCT-116 [9], with A549, with MDA-MB-231 [10] and with DLD-1 [11] was greater than 80% in each case. This molecule also yielded an Activity with HEK293 greater than 80%.
Take `O=C1NC(=O)/C(=C/c2ccc(OCCCCCOc3cccc(C(=O)/C=C/c4ccc5c(c4)OCO5)c3)cc2)S1`: on DNA ligase 1 [7], the inhibition stood at 99.6%.
The molecule `CCOC(=O)N1CCN(CC(=O)Nc2cc(C)nc3ccc(NC(=O)Nc4ccc(Cl)cc4)cc23)CC1` returned an inhibition against DNA ligase 1 [7] of 1.5%.
For the molecule `COc1ccc(NC(=O)Nc2ccc3nc(C)cc(NC(=O)c4ccccc4Cl)c3c2)cc1`, at DNA ligase 1 [7], the inhibition was 12.2%.
On the same count and under the same terms, with `CCOC(=O)N1CCN(CC(=O)Nc2cc(C)nc3ccc(NC(=O)Nc4ccc(C)c(Cl)c4)cc23)CC1` the figure was 98.6%.
Turning to `CCOC(=O)C1=C(C)NC(=O)NC1c1cc(C)c(O)c(/C=N/NC(=S)NC)c1` (stereo not given), the inhibition at 100 µM in the data set on HepG2 [8], in the data set on HCT-116 [9], in the data set with A549, in the data set on MDA-MB-231 [10] and in the data set on DLD-1 [11] was greater than 80% in each case. For the same molecule, the Activity in the data set on HEK293 is greater than 80%.
`COc1ccc(N2C(=O)C3C4C=CC(CNC(=S)Nc5ccc(OC)cc5[N+](=O)[O-])(O4)C3C2=O)cc1` (stereo not given): the inhibition against DNA ligase 1 [7] was found to be 65%.
Molecule `CC(=O)c1ccc(NC(=O)Nc2ccc3nc(C)cc(NC(=O)c4ccccc4)c3c2)cc1` had an inhibition against DNA ligase 1 [7] of 76.2%.
On to `CCOC(=O)C1=C(C)NC(=O)NC1c1cc(/C=N/NC(N)=O)c(O)c(C(C)(C)C)c1` (stereo not given), for which the inhibition at 100 µM in the data set with HepG2 [8], with HCT-116 [9], in the data set on A549, in the data set on MDA-MB-231 [10] and with DLD-1 [11] was less than 80% in each case. The molecule also gave an Activity in the data set with HEK293 of less than 80%.
Take `CCOC(=O)C1=C(C)NC(=O)NC1c1cc(/C=N/NC(=O)Nc2ccc(F)cc2)c(O)c(C(C)(C)C)c1` (stereo not given): the inhibition at 100 µM with HepG2 [8], in the data set on HCT-116 [9], in the data set with A549, in the data set with MDA-MB-231 [10] and with DLD-1 [11] was greater than 80% each time. In the data set on HEK293, the Activity is greater than 80%.
On to `CCOC(=O)C1=C(C)NC(=O)NC1c1cc(/C=N/NC(=O)Nc2cccc(OC)c2)c(O)c(C(C)(C)C)c1` (stereo not given), for which the inhibition at 100 µM in the data set on HepG2 [8], in the data set with HCT-116 [9], with A549, in the data set with MDA-MB-231 [10] and with DLD-1 [11] was greater than 80% throughout. In the data set on HEK293, the Activity is greater than 80%.
On to `CCOC(=O)C1=C(C)NC(=O)NC1c1cc(/C=N/NC(=O)Nc2ccc(Br)cc2)c(O)c(C(C)(C)C)c1` (stereo not given), for which the inhibition at 100 µM in the data set on HepG2 [8], in the data set with HCT-116 [9], in the data set with A549, with MDA-MB-231 [10] and in the data set on DLD-1 [11] was greater than 80% throughout. The molecule further registered an Activity in the data set with HEK293 greater than 80%.
Molecule `COc1cccc(NC(=S)NCC23C=CC(O2)C2C(=O)N(c4ccccc4Cl)C(=O)C23)c1` (stereo not given) yielded an inhibition against DNA ligase 1 [7] of 22.4%.
On to `C[n+]1cc2c3c(ccc2c2ccc4cc5c(cc4c21)OCO5)OCO3` [SANGUINARINE NITRATE], for which the IC50 against DNA ligase 1 [6] is 322 µM.
In turn, `COc1ccc(NC(=S)NCC23C=CC(O2)C2C(=O)N(c4ccccc4)C(=O)C23)c([N+](=O)[O-])c1` (stereo not given) registered an inhibition against DNA ligase 1 [7] of 56.2%.
On to `CCOC(=O)C1=C(C)NC(=S)NC1c1cc(/C=N/NC(=O)Nc2ccc(Cl)cc2)c(O)c(C(C)(C)C)c1` (stereo not given), for which the inhibition at 100 µM in the data set on HepG2 [8], with HCT-116 [9], in the data set with A549, with MDA-MB-231 [10] and with DLD-1 [11] was less than 80% throughout. This molecule also displayed an Activity in the data set on HEK293 of less than 80%.
In the case of `CCOC(=O)C1=C(C)NC(=O)NC1c1cc(C)c(O)c(/C=N/NC(N)=S)c1` (stereo not given), the inhibition at 100 µM in the data set with HepG2 [8], with HCT-116 [9], with A549, in the data set with MDA-MB-231 [10] and in the data set with DLD-1 [11] was greater than 80% throughout. Besides, the Activity in the data set on HEK293 is greater than 80%.
On DNA ligase 1 [7], `COc1cc([N+](=O)[O-])ccc1NC(=S)NCC12C=CC(O1)C1C(=O)N(c3c(Cl)cccc3Cl)C(=O)C12` (stereo not given) showed an inhibition of 75.9%.
`O=c1c(O)c(-c2ccc(O)cc2O)oc2cc(O)cc(O)c12` [MORIN]: half-maximal inhibition against DNA ligase 1 [6] (IC50) was put at 225 µM.
